Columns and labels:
[1] = tested on: Erlin-2; test: Immunoblot of Erlin-2 in LAPC4 cells and human prostate tissues; type: cell-based
Method: (§1) For protein analysis, immunoblots were performed as described previously. Li et al., J Clin Endocrinol Metab 98, E1189-1197 (2013). Briefly, total cellular protein was extracted with ice cold RIPA lysis buffer (Sigma-Aldrich) containing protease inhibitors (Roche). 30-50 μg protein was separated by 8% SDS-PAGE gel and then transferred to a nitrocellulose membrane (Millipore). After incubating with the anti-11β-HSD2 antibody (Santa Cruz; 1:3000), anti-11β-HSD1 antibody (Santa Cruz; 1:1000), GR antibody (BD Biosciences; 1:1000), anti-Erlin-2 antibody (Cell Signaling Technology: 1:1000) or anti-AMFR antibody (Proteintech; 1:1000) overnight at 4° C., the appropriate secondary antibody was incubated for 1 hour at room temperature. The chemiluminescent detection system (Thermo Scientific) was used to detect the bands with peroxidase activity. An anti-β-actin antibody (Sigma-Aldrich; 1:5000) was used as a control for sample loading.
Seven fresh prostate tissue cores (60-80 mg) from Patients #5-#11 were obtained from the peripheral zone of radical prostatectomy specimens at Cleveland Clinic, confirmed to have tumor in or in close proximity to cores by an expert prostate cancer pathologist, minced and aliquoted to two parts. One was treated with 10 nM DHEA plus vehicle, and the other was treated with 10 nM DHEA plus 10 μM Enz. […]

[2] = tested on: 11β-HSD1 protein; test: Immunoblot of 11β-HSD1 protein in prostate cancer cell lines; type: cell-based, human; conditions: AR-expressing prostate cancer cell lines
Method: as §1

[3] = tested on: LAPC4 and VCaP CRPC xenografts; test: Mouse xenograft studies: tumor growth and progression-free survival; type: in vivo
Method: All mouse studies were performed under a protocol approved by the Institutional Animal Care and Use Committee (IACUC) of the Cleveland Clinic Lerner Research Institute. All NSG male mice (6-8 weeks old) were purchased from the Jackson Laboratory and the number of mice used in this study was based on previously published mouse xenograft studies by our lab that determined effects of steroid pathway inhibition/augmentation on xenograft growth. Mice were surgically orchiectomized and implanted with DHEA pellets to mimic human adrenal DHEA production in patients with CRPC. 1 week later, mice were prepared for cell injections.
For the evaluation of the 11β-HSD2 role in reversing enzalutamide resistance, either 10^7 vector control or 10^7 11β-HSD2 overexpressing LAPC4 or VCaP cells (100 μl in 50% matrigel and 50% growth media) were subcutaneously injected into mice. When tumors reached 100 or 150 mm^3 (length×width×height×0.52), for LAPC4 and VCaP xenografts, respectively, the mice were arbitrarily divided into 2 groups each for vector and 11β-HSD2 overexpressing cells: Enz diet 62.5 mg/kg and or chow alone groups. Tran et al., Science 324, 787-790 (2009). Based on the daily chow consumption, approximately 0.3125 mg Enz was consumed per mouse per day. Enz in chow and chow alone were obtained from Medivation. Tumor volume was measured every other day, and progression-free survival was assessed as time to 3-fold (LAPC4) or 1.5-fold (VCaP) increase in tumor volume (from 100 or 150 mm^3) from the time Enz or chow alone was initiated. The number of mice in the LAPC4 Vector/Ctrl, Vector/Enz, 11β-HSD2/Ctrl and 11β-HSD2/Enz groups were 9, 9, 10, and 11, respectively. The number of mice in the VCaP Vector/Ctrl, Vector/Enz, 11β-HSD2/Ctrl and 11β-HSD2/Enz groups were 6, 6, 5, and 8, respectively. Numbers of mice in each treatment group were determined by those that survived surgical procedures and had reached a tumor volume to initiate treatment.
For evaluation of the role of AMFR in reversing enzalutamide resistance, either 10^7 control or 10^7 AMFR knockdown LAPC4 cells (100 μl in 50% matrigel and 50% growth media) were subcutaneously injected into mice. The remaining procedures were performed as described above. The number of mice in the LAPC4 shCtrl/Enz and shAMFR/Enz groups were 6, and 10, respectively. Protein levels of 11β-HSD2 in the shCtrl and control or shAMFR LAPC4 xenografts were analyzed by immunoblot. Briefly, ˜40-50 mg xenograft tissue was minced into pieces and then added into soft tissue homogenizing CK14 tubes (Betin Technologies) with 150 μl RIPA buffer containing protease inhibitors. Xenograft tissues were homogenized with a homogenizer (Minilys, Betin Technologies) 6 times (40 seconds each time) at the highest speed. Tubes were incubated on the ice for 5-10 minutes between each homogenization to cool lysates. The lysates were then centrifuged for 30 minutes at 15,000×g and the supernatants were used for immunoblot analysis.

[4] = tested on: 11β-HSD2 protein; test: Human prostate cancer tissue studies, 11β-HSD2 protein; conditions: tissues from patients with prostate cancer treated with enzalutamide (in patients or ex vivo 10 μM, 7-8 days)
Method: All deidentified human tissues were obtained using institutional review board (IRB)-approved protocols. Pre- and post-Enz lymph node tissues were obtained from CT-guided biopsy of metastatic CRPC from Cleveland Clinic (Patient #3) and Dana-Farber Cancer Institute (Patient #4). Pathologic identification of tumor was done by an expert prostate cancer pathologist. Staining of tissues from Patient #4 was done with frozen section slides that were air dried at room temperature for 5 minutes, followed by rehydration with PBS. Immunofluorescence staining was performed as described above. H&E staining was completed by the imagine core of Biomedical Engineering Department in Lerner Research Institute of Cleveland Clinic.
Paired pre-Enz treatment and post-Enz treatment tissues from Patient #1 and Patient #2 were obtained from patients with localized prostate cancer treated with Enz plus ADT for 2 months prior to the second biopsy in a clinical trial (NCT02064582) at the University of Texas Southwestern Medical Center. Biopsies were obtained using image-guidance with a Koelis Urostation. The biopsy cores were minced into pieces and then added into Soft tissue homogenizing CK14 tubes (Betin Technologies) with 100 μl 6M Urea buffer containing protease inhibitors (Sigma Aldrich). Tissue homogenization and immunoblot analysis were performed as described previously. […]

[5] = LAPC4 xenografts with forced 11β-HSD2 expression, enzalutamide in chow
[6] = enzalutamide-treated LAPC4 xenografts with stable AMFR knockdown

CNC(=O)c1ccc(N2C(=S)N(c3ccc(C#N)c(C(F)(F)F)c3)C(=O)C2(C)C)cc1F [enzalutamide]
Erlin-2 expression ([1]; LAPC4 cells): consistently up-regulated
patient tissues with Erlin-2 up-regulation ([1]; human prostate tissues treated with enzalutamide): 8 of 11
11β-HSD1 protein [2]: no consistent effect on 11β-HSD1 was detectable
xenograft tumor growth ([3]; LAPC4 Vector xenografts, orchiectomized mice with DHEA, enzalutamide in chow): growth of Vector xenografts through enzalutamide therapy
progression-free survival [3, 5]: prolonged progression-free survival
xenograft tumor growth [3, 5]: significantly reversed enzalutamide-resistant growth
sensitivity of xenograft to treatment ([3]; VCaP xenografts with 11β-HSD2 expression): Reinstatement of sensitivity to enzalutamide treatment
progression-free survival [3, 6]: prolonged progression-free survival
xenograft tumor growth [3, 6]: suppressed xenograft growth
patient tissues with loss of 11β-HSD2 with treatment [4]: Nine of 11

Reference: patent US20180296531A1, “STIMULATION OF 11B-HSD2 EXPRESSION TO IMPROVE HORMONAL THERAPY OF STEROID-DEPENDENT DISEASE” (THE CLEVELAND CLINIC FOUNDATION, priority 2015, published 2018)
